Data reported in patent US9567649B2, “System for identification of microorganism and detection of infectious disease” (priority 2011, dated 2017).

B1: S(Topl): REEAD sensor previously demonstrated to react specifically with hTopl in human cell extract (SEQ ID NO: 25) (nucleic acid)
chain: AGAAAAATTTTTAAAAAAACTGTGAAGATCGCTTATTTTTTTAAAAATTTTTCTAAGTCTTTTAGATCCCTCAATGCTGCTGCTGTACTACGATCTAAAAGACTTAGA
modifications: chemistry not given here

Tests used:
Assay type in all cases: biochemical, Plasmodium falciparum
pfTopl [1] = experiment: DNA cleavage-ligation assay with radio-labeled duplex DNA in absence or presence of CPT; details: 60 nM CPT, duplex OL62/OL63, 20 min at 37° C.
Procedure: Detection of PfTopl activity using radio-labeled DNA substrates: DNA cleavage reactions were carried out by incubating 20 nM duplex OL37/OL56 or OL62/OL63 with 500 fmol of pfTopl or hTopl in the absence or presence of 60 nM CPT for 20 min at 37° C. in 10 mM Tris (pH 7.5), 5 mM MgCI2, and 5 mM CaCI2 in a final volume of 20 μI. After the 20 min incubation, reactions were stopped with 0.5% (w/v) SDS. Samples were subjected to ethanol precipitation, resuspended in 10 μI of 1 mg/ml trypsin and incubated at 37° C. for 30 min. Reaction products were analyzed by denaturing polyacrylamide gel electrophoresis following standard procedures, and radioactive bands were visualized by PhosphorImaging.

pfTopl [2] = experiment: REEAD: circularization of oligonucleotide sensors by purified pfTopl; details: control-circle added
Excerpt: Like human topoisomerasel (hTopl), pfTopl belongs to the family of nuclear typelB topoisomerases, which introduce transient single-strand breaks in double-stranded DNA with preference for a very degenerate consensus sequence. Cleavage results in a covalent enzyme-DNA intermediate allowing religation of the generated nick (FIG. 23). […] Based on this, five different oligonucleotides with potential of being circularized specifically by pfTopl cleavage-ligation were designed. These oligonucleotides (PfTopl (S1-S5)) all folded into a hairpin structure containing a probe- and a primer-annealing sequence in the single-stranded loop and a potential pfTopl recognizable sequence at the end of the double-stranded stem region (FIG. 1 b). […] To allow comparative quantification of signals generated in different reactions, a known concentration of control-circle with a unique probe-annealing sequence was added to the reaction mixtures before RCA and resulting RCPs visualized using a green-fluorescent probe. […]
(§1) REEAD-microscopic readout: The 5′-amine-conjugated primer was coupled to CodeLink Activated Slides (SurModics) according to the manufacturer's description. […] Quantification of pfTopl specific signals was performed as previously described^1. REEAD-HRP readout: Primer coupling to NHS-activated M-PVA Akl 1 magnetic beads (Chemagen) was performed according to the manufacturer's description. […]

pfTopl [3] = experiment: REEAD in nuclear extract from HEK293T cells with or without spike-in pfTopl
Excerpt: The specificity of pfTopl(S1) for pfTopl in crude biological samples was addressed using nuclear extract from human HEK293T cells with or without spike-in pfTopl as a model for Plasmodium infection. […] Consequently, green signals observed in FIG. 22b, right panel, originated from hTopl and pfTopl activity in combination where pfTopl(S1) and S(Topl) competed for reaction by pfTopl at the expense of sensitivity.
Cell culture and nuclear extract preparation: Human embryonic kidney HEK293T cells were cultured in Dulbecco's Modified Eagle Medium (GIBCO) supplemented with 10% fetal bovine serum (FBS) (GIBCO), 100 units/mL penicillin and […] streptomycin (Invitrogen). Cells were incubated in a humidified incubator (5% CO2/95% air atmosphere at 37° C.). Cells were harvested with 0.5% Trypsin-EDTA (GIBCO).
Media was discarded and the cell washed in Phosphate-Buffered Saline (1×PBS) prior to nuclear extraction performed as previously described′. […]
as §1

Molecule	effect of camptothecin on pfTopl ligation product (pfTopl [1])	circularization efficiency by pfTopl (red signals relative to green signals) (pfTopl [2])	specificity of sensor for pfTopl in nuclear extract (pfTopl [3])
CC[C@@]1(O)C(=O)OCc2c1cc1n(c2=O)Cc2cc3ccccc3nc2-1 [camptothecin]	A ligation product is only observed upon incubation of the substrate with pfTopl in the absence of camptothecin	–	–
pfTopl(S1): hairpin oligonucleotide sensor for pfTopl, sequence in the 2nd table (TCTAGAAAGTATAGGAACTTCGAACGACTCAGAATGACTG; hairpin, further chemistry not given here)	–	most efficient sensor of pfTopl	specificity of pfTopl(S1) for pfTopl even on a background of human nucleus content
B1	–	circularizes S(Topl)	–
